Test results reported in ChEMBL document CHEMBL3259618, “Synthesis, molecular structure, DNA-binding, cytotoxicity, apoptosis and antioxidant activity of compounds containing aryloxazole” (Eur J Med Chem, 2014).
Activity calls are given as the source filed them. The rule behind the calls is not given here.

Assays:
Calf thymus DNA [1] = assay: Binding affinity to calf thymus DNA assessed as intercalation by measuring viscosity by viscometer analysis; type: nucleic-acid assay; settings: Bos taurus
Calf thymus DNA [2] = assay: Binding affinity to calf thymus DNA assessed as decrease in compound emission intensity at 356 nm at 20 uM by luminescence spectrometer analysis; type: nucleic-acid assay; settings: Bos taurus
Calf thymus DNA [3] = assay: Binding affinity to calf thymus DNA assessed as luminescence intensity at compound to DNA ratio of 1:2 by job plot analysis; type: nucleic-acid assay; settings: Bos taurus
Escherichia coli [4] = assay: Induction of Escherichia coli supercoiled pBR322 DNA cleavage assessed as decrease in intact supercoiled form measured after UV irradiation by agarose gel electrophoresis analysis
Escherichia coli [5] = assay: Induction of Escherichia coli supercoiled pBR322 DNA cleavage assessed as increase in open circular form measured after UV irradiation by agarose gel electrophoresis analysis
[6] = Antitumor activity against human Bel7402 cells assessed as growth inhibition after 48 hrs by MTT assay; type: functional, cell-based; settings: Bel-7402, 48 h
A549 [7] = assay: Antitumor activity against human A549 cells assessed as growth inhibition after 48 hrs by MTT assay; type: functional, cell-based; settings: A549, 48 h
[8] = Antitumor activity against human MG63 cells assessed as growth inhibition after 48 hrs by MTT assay; type: functional, cell-based; settings: MG-63, 48 h
[9] = Antitumor activity against human SKBR3 cells assessed as growth inhibition after 48 hrs by MTT assay; type: functional, cell-based; settings: SK-BR-3, 48 h
[10] = Antioxidant activity assessed as suppression ratio of hydroxyl radical formation at 0.5 uM after 30 mins by absorbance analysis; type: functional
[11] = Antioxidant activity assessed as suppression ratio of hydroxyl radical formation at 1 uM after 30 mins by absorbance analysis; type: functional
[12] = Antioxidant activity assessed as suppression ratio of hydroxyl radical formation at 1.5 uM after 30 mins by absorbance analysis; type: functional
[13] = Antioxidant activity assessed as suppression ratio of hydroxyl radical formation at 2 uM after 30 mins by absorbance analysis; type: functional
[14] = Antioxidant activity assessed as suppression ratio of hydroxyl radical formation at 2.5 uM after 30 mins by absorbance analysis; type: functional
[15] = Antioxidant activity assessed as suppression ratio of hydroxyl radical formation at 3 uM after 30 mins by absorbance analysis; type: functional
[16] = Antioxidant activity assessed as suppression ratio of hydroxyl radical formation at 3.5 uM after 30 mins by absorbance analysis; type: functional
[17] = Antioxidant activity assessed as suppression of hydroxyl radical formation after 30 mins by absorbance analysis; type: functional
Calf thymus DNA [18] = assay: Binding affinity to calf thymus DNA assessed as hypochromicity at 231 nm at 40 uM after 5 mins by electronic absorption analysis; type: nucleic-acid assay; settings: Bos taurus
Bos taurus [19] = species on record: Bos taurus; assay: Intrinsic binding affinity to calf thymus DNA at 231 nm after 5 mins by electronic absorption analysis
Calf thymus DNA [20] = assay: Binding affinity to calf thymus DNA assessed as hypochromicity at 233 nm at 40 uM after 5 mins by electronic absorption analysis; type: nucleic-acid assay; settings: Bos taurus
Bos taurus [21] = species on record: Bos taurus; assay: Intrinsic binding affinity to calf thymus DNA at 233 nm after 5 mins by electronic absorption analysis
Calf thymus DNA [22] = assay: Binding affinity to calf thymus DNA assessed as increase in compound emission intensity at 446 nm at 20 uM by luminescence spectrometer analysis; type: nucleic-acid assay; settings: Bos taurus
Calf thymus DNA [23] = assay: Binding affinity to calf thymus DNA assessed as luminescence intensity at compound to DNA ratio of 4:1 by job plot analysis; type: nucleic-acid assay; settings: Bos taurus
A549 [24] = assay: Induction of cell cycle arrest in human A549 cells assessed as accumulation at G0/G1 phase of cell cycle at 25 uM after 24 hrs by propidium iodide staining based flow cytometry (reference value: 73.79%); type: functional
A549 [25] = assay: Induction of cell cycle arrest in human A549 cells assessed as accumulation at S phase of cell cycle at 25 uM after 24 hrs by propidium iodide staining based flow cytometry (reference value: 9.8%); type: functional
A549 [26] = assay: Induction of cell cycle arrest in human A549 cells assessed as accumulation at G2/M phase of cell cycle at 25 uM after 24 hrs by propidium iodide staining based flow cytometry (reference value: 14.73%); type: functional
A549 [27] = assay: Induction of apoptosis in human A549 cells assessed as viable cells at 25 uM after 24 hrs by flow cytometry (reference value: 92.28%); type: functional; settings: A549, 24 h, read-out: Activity
A549 [28] = assay: Induction of apoptosis in human A549 cells assessed as viable cells at 50 uM after 24 hrs by flow cytometry (reference value: 92.28%); type: functional; settings: A549, 24 h, read-out: Activity
A549 [29] = assay: Induction of apoptosis in human A549 cells assessed as apoptotic cells at 25 uM after 24 hrs by flow cytometry (reference value: 0%); type: functional
A549 [30] = assay: Induction of apoptosis in human A549 cells assessed as apoptotic cells at 50 uM after 24 hrs by flow cytometry (reference value: 0%); type: functional
A549 [31] = assay: Induction of apoptosis in human A549 cells assessed as necrotic cells at 25 uM after 24 hrs by flow cytometry (reference value: 0.04%); type: functional
A549 [32] = assay: Induction of apoptosis in human A549 cells assessed as necrotic cells at 50 uM after 24 hrs by flow cytometry (reference value: 0.04%); type: functional
A549 [33] = assay: Induction of apoptosis in human A549 cells after 24 hrs by flow cytometry; type: functional, cell-based
Calf thymus DNA [34] = assay: Binding affinity to calf thymus DNA assessed as luminescence intensity at compound to DNA ratio of 1:1 by job plot analysis; type: nucleic-acid assay; settings: Bos taurus
Calf thymus DNA [35] = assay: Binding affinity to calf thymus DNA assessed as decrease in compound emission intensity at 705 nm at 20 uM by luminescence spectrometer analysis; type: nucleic-acid assay; settings: Bos taurus

SMILES	Activity (Calf thymus DNA [1])	Activity (Escherichia coli [4])	Activity (Escherichia coli [5])	IC50 [6] [µM]	IC50 (A549 [7]) [µM]	IC50 [8] [µM]	IC50 [9] [µM]	inhibition [10] [%]	inhibition [11] [%]	inhibition [12] [%]	inhibition [13] [%]	inhibition [14] [%]	inhibition [15] [%]	inhibition [16] [%]	inhibition [17]	Activity (Calf thymus DNA [18]) [%]	Kb (Bos taurus [19]) [×10³ /M]	also measured
OCc1nc2cc(-c3c(O)ccc4ccccc34)c3ccccc3c2o1	Active	Active	Active	> 100	> 100	> 100	> 100	4.04	9.24	12.3	23.9	26.9	87.9	88.2	Dose-dependent effect	33.4	5.31	inhibition (Calf thymus DNA [2]): 79.6%; Flu intensity (Calf thymus DNA [3]): 0.32 a.u.
OCc1nc2cc(-c3c(O)ccc4cc(Br)ccc34)c3cc(Br)ccc3c2o1	Active	Active	Active	56.4	59.8	> 100	> 100	15.2	23.5	28.3	35.9	52.8	80.9	86.7	Dose-dependent effect			Activity (Calf thymus DNA [20]): 34.6%; Kb (Bos taurus [21]): 4.44 ×10³ /M; Activity (Calf thymus DNA [22]): 5.76%; Flu intensity (Calf thymus DNA [23]): 0.8 a.u.; Activity (A549 [24]): 71.9%; Activity (A549 [25]): 11.16%; Activity (A549 [26]): 15.5%; viability at 25 µM (A549 [27]): 83.5%; viability at 50 µM (A549 [28]): 80%; Activity (A549 [29]): 3.57%; Activity (A549 [30]): 4.09%; Activity (A549 [31]): 2.87%; Activity (A549 [32]): 3.18%; Activity (A549 [33]): Dose-dependent effect
CC(=O)OCc1nc2cc(-c3c(OC(C)=O)ccc4ccccc34)c3ccccc3c2o1	Active	Active	Active	> 100	> 100	> 100	> 100	18.9	32.5	50.4	75.7	81.2	86.4	89	Dose-dependent effect	29	2.64	Flu intensity (Calf thymus DNA [34]): 0.54 a.u.; inhibition (Calf thymus DNA [35]): 60.4%
